Experimental data reported in US8877748B2, “Heterocyclic fused anthraquinone derivatives, manufacturing method and pharmaceutical composition using thereof” (National Defense Medical Center, priority 2012, dated 2014).
Like-named read-outs stand apart in the source and are kept apart here.

How the values were obtained:
[1] = test system: OVCAR-8; assay: NCI one-dose screening, ovarian cancer OVCAR-8; assay type: cell-based, human; details: OVCAR-8, 10 μM
[2] = test system: SK-MEL-2; assay: NCI one-dose screening, melanoma SK-MEL-2; assay type: cell-based, human; details: SK-MEL-2, 10 μM
[3] = test system: NCI-H522; assay: NCI one-dose screening, non-small cell lung cancer NCI-H522; assay type: cell-based, human; details: NCI-H522, 10 μM
[4] = test system: SF-295; assay: NCI one-dose screening, CNS cancer SF-295; assay type: cell-based, human; details: SF-295, 10 μM
[5] = test system: M14; assay: NCI one-dose screening, melanoma M14; assay type: cell-based, human; details: M14, 10 μM
[6] = test system: HL-60, TB; assay: NCI one-dose screening, leukemia HL-60, TB; assay type: cell-based, human; details: HL-60(TB)
[7] = test system: NCI-H226; assay: NCI one-dose screening, non-small cell lung cancer NCI-H226; assay type: cell-based, human; details: NCI-H226, 10 μM
[8] = test system: SN12C; assay: NCI one-dose screening, renal cancer SN12C; assay type: cell-based, human; details: SN12C
[9] = test system: UACC-257; assay: NCI one-dose screening, melanoma UACC-257; assay type: cell-based, human; details: UACC-257, 10 μM
[10] = test system: DU145; assay: NCI one-dose screening, prostate cancer DU145; assay type: cell-based, human; details: DU145, 10 μM
[11] = test system: NCI-H460; assay: NCI one-dose screening, non-small cell lung cancer NCI-H460; assay type: cell-based, human; details: NCI-H460, 10 μM
[12] = test system: NCI-H322M; assay: NCI one-dose screening, non-small cell lung cancer NCI-H322M; assay type: cell-based, human
[13] = test system: HS 578-T; assay: NCI one-dose screening, breast cancer HS 578-T; assay type: cell-based, human
[14] = test system: MCF7; assay: NCI one-dose screening, breast cancer MCF7; assay type: cell-based, human; details: MCF7, 10 μM
[15] = test system: UACC-62; assay: NCI one-dose screening, melanoma UACC-62; assay type: cell-based, human; details: UACC-62, 10 μM
[16] = test system: HCT-15; assay: NCI one-dose screening, colon cancer HCT-15; assay type: cell-based, human; details: HCT-15, 10 μM
[17] = test system: U251; assay: NCI one-dose screening, CNS cancer U251; assay type: cell-based, human; details: U251, 10 μM
[18] = test system: SF-268; assay: NCI one-dose screening, CNS cancer SF-268; assay type: cell-based, human; details: SF-268, 10 μM
[19] = test system: PRMI-8226 cell line; assay: NCI one-dose screening, leukemia PRMI-8226; assay type: cell-based, human; details: RPMI-8226, 10 μM
[20] = test system: HOP-62; assay: NCI one-dose screening, non-small cell lung cancer HOP-62; assay type: cell-based, human; details: HOP-62, 10 μM
[21] = test system: NCl/ADR-RES; assay: NCI one-dose screening, breast cancer NCl/ADR-RES; assay type: cell-based, human; details: Ovarian cancer, NCI/ADR-RES
[22] = test system: K562cell line; assay: NCI one-dose screening, leukemia K562; assay type: cell-based, human; details: K562, 10 μM
[23] = test system: 786-O; assay: NCI one-dose screening, renal cancer 786-O; assay type: cell-based, human; details: 786-0, 10 μM
[24] = test system: MALME-3M; assay: NCI one-dose screening, melanoma MALME-3M; assay type: cell-based, human; details: MALME-3M
[25] = test system: SR; assay: NCI one-dose screening, leukemia SR; assay type: cell-based, human; details: SR
[26] = test system: EKVX; assay: NCI one-dose screening, non-small cell lung cancer EKVX; assay type: cell-based, human; details: EKVX
[27] = test system: BT-549; assay: NCI one-dose screening, breast cancer BT-549; assay type: cell-based, human; details: BT-549, 10 μM
[28] = test system: OVCAR-5; assay: NCI one-dose screening, ovarian cancer OVCAR-5; assay type: cell-based, human; details: OVCAR-5, 10 μM
[29] = test system: MDA, -MB-435; assay: NCI one-dose screening, breast cancer MDA, -MB-435; assay type: cell-based, human; details: Melanoma, MDA-MB-435, 10 μM
[30] = test system: HT29; assay: NCI one-dose screening, colon cancer HT29; assay type: cell-based, human; details: HT29, 10 μM
[31] = test system: MDA-MB-468; assay: NCI one-dose screening, breast cancer MDA-MB-468; assay type: cell-based, human; details: MDA-MB-468, 10 μM
[32] = test system: SK-MEL-5; assay: NCI one-dose screening, melanoma SK-MEL-5; assay type: cell-based, human; details: SK-MEL-5, 10 μM
[33] = test system: CAKI-1; assay: NCI one-dose screening, renal cancer CAKI-1; assay type: cell-based, human; details: CAKI-1, 10 μM
[34] = test system: HCC-2998; assay: NCI one-dose screening, colon cancer HCC-2998; assay type: cell-based, human; details: HCC-2998, 10 μM
[35] = test system: CCRF-CEM; assay: NCI screening platform one-dose single concentration screening, leukemia CCRF-CEM; assay type: cell-based, human; details: CCRF-CEM
[36] = test system: A549/ATCC; assay: NCI one-dose screening, non-small cell lung cancer A549/ATCC; assay type: cell-based, human; details: A549/ATCC
[37] = test system: TK-10; assay: NCI one-dose screening, renal cancer TK-10; assay type: cell-based, human; details: TK-10, 10 μM
[38] = test system: human tumor cell lines; assay: NCI one-dose screening, mean, delta and range of growth percent over all cell lines tested; assay type: cell-based; details: for Growth Percent (10 μM), Delta: Delta over all cell lines tested; for Growth Percent (10 μM), Mean: Mean over all cell lines tested; for Growth Percent (10 μM), Range: Range over all cell lines tested
[39] = test system: OVCAR-3; assay: NCI one-dose screening, ovarian cancer OVCAR-3; assay type: cell-based, human; details: OVCAR-3, 10 μM
[40] = test system: IGROV1; assay: NCI one-dose screening, ovarian cancer IGROV1; assay type: cell-based, human; details: IGROV1, 10 μM
[41] = test system: T-47D; assay: NCI one-dose screening, breast cancer T-47D; assay type: cell-based, human; details: T-47D
[42] = test system: LOX IMVI; assay: NCI one-dose screening, melanoma LOX IMVI; assay type: cell-based, human; details: LOX IMVI
[43] = test system: KM12; assay: NCI one-dose screening, colon cancer KM12; assay type: cell-based, human; details: KM12, 10 μM
[44] = test system: UO-31; assay: NCI one-dose screening, renal cancer UO-31; assay type: cell-based, human; details: UO-31, 10 μM

Which results are given for CN(C)CCNc1cc2c(c3nsnc13)C(=O)c1ccccc1C2=O [C8]?
Growth Percent (10 μM) [1]: −28.91%; Growth Percent (10 μM) [2]: −66.52%; Growth Percent (10 μM) [3]: −91.81%; Growth Percent (10 μM) [4]: −55.73%; Growth Percent (10 μM) [5]: −96.08%; Growth Percent (10 μM) [6]: −10.38%; Growth Percent (10 μM) [7]: 69.78%; Growth Percent (10 μM) [8]: −95.78%; Growth Percent (10 μM) [9]: −88.80%; Growth Percent (10 μM) [10]: −95.45%; Growth Percent (10 μM) [11]: −38.31%; Growth Percent (10 μM) [12]: −56.32%; Growth Percent (10 μM) [13]: 4.32%; Growth Percent (10 μM) [14]: −49.41%; Growth Percent (10 μM) [15]: −47.85%; Growth Percent (10 μM) [16]: −60.44%; Growth Percent (10 μM) [17]: −55.42%; Growth Percent (10 μM) [18]: −14.54%; Growth Percent (10 μM) [19]: −29.81%; Growth Percent (10 μM) [20]: −67.97%; Growth Percent (10 μM) [21]: −23.20%; Growth Percent (10 μM) [22]: −24.44%; Growth Percent (10 μM) [23]: −14.05%; Growth Percent (10 μM) [24]: −85.22%; Growth Percent (10 μM) [25]: −49.98%; Growth Percent (10 μM) [26]: −25.35%; Growth Percent (10 μM) [27]: −99.43%; Growth Percent (10 μM) [28]: −76.97%; Growth Percent (10 μM) [29]: −58.82%; Growth Percent (10 μM) [30]: −45.50%; Growth Percent (10 μM) [31]: −62.81%; Growth Percent (10 μM) [32]: −98.79%; Growth Percent (10 μM) [33]: 6.88%; Growth Percent (10 μM) [34]: −86.18%; Growth Percent (10 μM) [35]: −12.55%; Growth Percent (10 μM) [36]: −60.09%; Growth Percent (10 μM) [37]: −35.59%; Growth Percent (10 μM), Delta [38]: 49.51%; Growth Percent (10 μM), Mean [38]: −49.52%; Growth Percent (10 μM), Range [38]: 112.33%; Growth Percent (10 μM) [39]: −38.62%; Growth Percent (10 μM) [40]: −28.40%; Growth Percent (10 μM) [41]: 12.90%; Growth Percent (10 μM) [42]: −90.91%; Growth Percent (10 μM) [43]: −21.66%; Growth Percent (10 μM) [44]: −28.47%

How did the “Growth Percent (10 μM)” value [1] turn out when CC(C)Sc1cc2c(c3nsnc13)C(=O)c1ccccc1C2=O [C18, 4-(isopropylthio)anthra[2,1-c][1,2,5] thiadiazol-6,11-dione] was run?
Its value is −22.64%.

What about the “Growth Percent (10 μM)” value [2] of the same compound?
The value was −55.62%.

And the “Growth Percent (10 μM)” value [3]?
The value was −59.54%.

And the “Growth Percent (10 μM)” value [4]?
The value was −16.57%.

What about the “Growth Percent (10 μM)” value [5] of the same compound?
Its value is −31.54%.

And the “Growth Percent (10 μM)” value [6]?
The value was −41.24%.

What about the “Growth Percent (10 μM)” value [7] of the same compound?
Its value is 10.21%.

What about the “Growth Percent (10 μM)” value [8] of the same compound?
The value was −28.62%.

And the “Growth Percent (10 μM)” value [9]?
Its value is −91.69%.

What about the “Growth Percent (10 μM)” value [10] of the same compound?
The value was 6.66%.

And the “Growth Percent (10 μM)” value [11]?
The value was 4.92%.

What about the “Growth Percent (10 μM)” value ([12]; Non-small cell lung cancer, NCI-H322M, 10 μM) of the same compound?
The value was −0.80%.

And the “Growth Percent (10 μM)” value ([13]; Breast cancer, HS 578T, 10 μM)?
The value was −9.16%.

What about the “Growth Percent (10 μM)” value [14] of the same compound?
Its value is −68.82%.

And the “Growth Percent (10 μM)” value [15]?
The value was −57.09%.

And the “Growth Percent (10 μM)” value [16]?
Its value is 15.31%.

What about the “Growth Percent (10 μM)” value [17] of the same compound?
Its value is −23.10%.

What about the “Growth Percent (10 μM)” value [18] of the same compound?
Its value is 7.06%.

And the “Growth Percent (10 μM)” value [19]?
The value was −38.03%.

And the “Growth Percent (10 μM)” value [20]?
Its value is 13.18%.

And the “Growth Percent (10 μM)” value [21]?
The value was −24.93%.

And the “Growth Percent (10 μM)” value [22]?
The value was −26.17%.

What about the “Growth Percent (10 μM)” value [23] of the same compound?
Its value is 12.37%.

And the “Growth Percent (10 μM)” value [24]?
The value was −86.04%.

What about the “Growth Percent (10 μM)” value [25] of the same compound?
The value was −47.97%.

What about the “Growth Percent (10 μM)” value [26] of the same compound?
The value was −6.58%.

And the “Growth Percent (10 μM)” value [27]?
The value was 10.84%.

What about the “Growth Percent (10 μM)” value [28] of the same compound?
The value was −27.85%.

What about the “Growth Percent (10 μM)” value [29] of the same compound?
Its value is −79.28%.

What about the “Growth Percent (10 μM)” value [30] of the same compound?
The value was 48.08%.

And the “Growth Percent (10 μM)” value [31]?
Its value is −78.76%.

And the “Growth Percent (10 μM)” value [32]?
Its value is −99.20%.

What about the “Growth Percent (10 μM)” value [33] of the same compound?
Its value is −5.68%.

And the “Growth Percent (10 μM)” value [34]?
Its value is 21.00%.

What about the “Growth Percent (10 μM)” value [35] of the same compound?
Its value is −45.05%.

And the “Growth Percent (10 μM)” value [36]?
The value was −8.14%.

What about the “Growth Percent (10 μM)” value [37] of the same compound?
Its value is 30.33%.

And the “Growth Percent (10 μM), Delta” value [38]?
The value was 78.36%.

What about the “Growth Percent (10 μM), Mean” value [38] of the same compound?
Its value is −21.64%.

And the “Growth Percent (10 μM), Range” value [38]?
The value was 202.47%.

What about the “Growth Percent (10 μM)” value [39] of the same compound?
Its value is −60.32%.

And the “Growth Percent (10 μM)” value [40]?
The value was −32.91%.

And the “Growth Percent (10 μM)” value [41]?
Its value is −24.37%.

What about the “Growth Percent (10 μM)” value [42] of the same compound?
Its value is −21.59%.

What about the “Growth Percent (10 μM)” value [43] of the same compound?
Its value is 19.33%.

And the “Growth Percent (10 μM)” value [44]?
The value was −28.43%.
